According to a melting point compilation (Tetko et al.; mined from patent text by program, amines drawn as free bases though some values may be those of a salt):

| SMILES | melting point [°C] |
| --- | --- |
| COC(=O)[C@@H]1[C@@H](O)CCN1C(=O)Nc1ccc(C#N)c(Cl)c1C | 189 to 191 |
| CS(=O)c1c(C#N)nn(-c2c(Cl)cc(C(F)(F)F)cc2Cl)c1NCC(N)=O (stereo not drawn) | 155 to 157 |
| CN1C(C)(C)CC(N(CCCCCCN(C2CC(C)(C)N(C)C(C)(C)C2)P2OCC(C)(C)CO2)P2OCC(C)(C)CO2)CC1(C)C | 103 |
| CP(C)(=O)C(O)C(=O)OCC(=O)c1ccccc1 (stereo not drawn) | 147 |
| CN1CCc2cccc3c4c(n(c23)CC1)CCSC4 | 123 to 125 |
| CCCCCCCN(CC(c1ccccc1)c1ccccc1)C(=O)Nc1c(C)cccc1C | 171 to 173 |
| Cc1ccc(C)c(C(Cl)=NNc2ccccc2)c1 | 48.5 to 49 |
| C=CCc1c(O)c(Cl)cc(F)c1N1C(=O)C2=C(CCCC2)C1=O | 109 to 111 |
| CCC=CCn1c(=O)sc2c(=O)n(N)c(N)nc21 | 137 to 139 |
| O=C1C=C(O)C(=O)c2cc(F)ccc21 | 206 to 210 |
| Cc1ncc([N+](=O)[O-])n1CCN=[N+]=[N-] | 51 to 51.5 |
| Nc1nnc(N2CCN(CCOc3ccc(Br)cc3)CC2)[nH]1 | 166 to 167 |
| COc1ccc(S(=O)(=O)Nc2ccccc2NC(=O)c2ccc(F)cc2)cc1 | 169 to 170 |
| O=C(NCCO[N+](=O)[O-])c1csc(C(F)(F)F)n1 | 81 to 82 |
| COC(=O)c1cccc2cc(C)n(Cc3ccc(-c4ccccc4-c4nnn[nH]4)cc3)c12 | 180 to 182 |
| Nc1cc(Cl)nc(Cl)c1[N+](=O)[O-] | 136 to 138 |
| NC(=O)NN=Cc1ccc(OC2CCCCC2)cc1 | 215 to 217 |
| CCOC(=O)N1CCN=C1CC(c1ccccc1)c1ccccc1 | 78 to 80 |
| O=C(Cl)c1c(Cl)ccc2c1OCCO2 | 50 |
| C=CCNC(=O)CCCC(=O)O | 35.1 |
| O=C(NNc1ccc(Br)cc1)c1c(F)cccc1F | 172 |
| O=C(O)CN1C(=O)C(=C2CCCCC2)SC1=S | 196 to 201 |

Next, values leading:

| melting point [°C] | SMILES |
| --- | --- |
| 55 to 72 | Cc1oc(-c2ccccc2)nc1C(O)COc1ccc(CC2SC(=O)NC2=O)nc1 (stereo not drawn) |
| 76 to 77 | CCOC(=O)C(CC(C)C)NC(=O)N1CCc2cc(S(=O)(=O)N3CCN(c4cccc(Cl)c4)CC3)ccc21 (stereo not drawn) |
| 264 | C#CCN(c1ccc(C(=O)O)cc1)C1CCc2cc3nc(C)[nH]c(=O)c3cc21 (racemic) |
| 72 to 75 | CCOC(=O)c1c(CN(CC)CC)nc2sc3c(c2c1-c1ccc(OC)c(OC)c1)CCN(C(C)=O)C3 |
| 184 to 185 | COc1cc2c3ccc(OC)c(OC)c3n(C(=O)c3ccccc3)c2cc1OC |
| 95 to 96 | CCCOc1c(OC)cc([C@H]2CC[C@H](c3cc(OC)c(OC)c(OC)c3)O2)cc1S(C)(=O)=O (relative stereo) |
| 135 | Cc1cc(C(=O)O)ccc1Cc1cc2cc(C(F)(F)F)ccc2n1S(=O)(=O)c1cccc(C(C)(C)C)c1 |
| 133 | COc1ccc(S(=O)(=O)N(CCNS(C)(=O)=O)c2ccc(Cl)cc2Cc2c(F)cccc2F)cc1OC |
| 132 to 134 | CC(C)(C)OC(=O)Nc1cc(OCC2COC(C)(C)O2)c(C#Cc2ccccc2)cc1NC(=O)CC(=O)c1cccc(C#N)c1 (stereo not drawn) |
| 146 | COc1cc2c(cc1OC)CN(CCCCc1ccc(NC(=O)c3nc4ccccc4nc3C)cc1)CC2 |
| 125 to 126 | CCOc1cc(C=CC(=O)OC)ccc1OCc1coc(-c2ccccc2)n1 |
| 152 to 154 | CCc1sc2ncccc2c1S(=O)(=O)Nc1onc(C)c1Cl |
| 90 to 91 | CCCN(CCC)C(=O)COc1nc(-c2ccccc2)nc(C)c1Cl |
| 104 to 106 | CCCc1nn(C)c2c(=O)n(CCCNc3ccc(OC(C)(C)C(=O)O)cc3)c(C)nc12 |
| 174 to 176 | CC1(C)Oc2ccc(C#N)cc2[C@@H](NC2=CC(=O)CC2)[C@@H]1O (relative stereo) |
| 108 to 110 | OC1c2cc(OCc3ccccn3)ccc2OCC1Cc1cccnc1 (stereo not drawn) |
